Measured values published in ChEMBL document CHEMBL1208745, “6-Phenyl-1H-imidazo[4,5-c]pyridine-4-carbonitrile as cathepsin S inhibitors” (Bioorg Med Chem Lett, 2010).
Calls of active or inactive are those of the source. The calls are words filed in the database; no cut-off is given here.

Columns and labels:
[1] = molecular target: Cathepsin B (Homo sapiens) (UniProt P07858); experiment: Inhibition of human cathepsin B by fluorescence assay
Cathepsin K = molecular target: T1, Cathepsin K (Homo sapiens, UniProt P43235); experiment: Inhibition of human cathepsin K by fluorescence assay
T1 sequence (P43235 whole entry): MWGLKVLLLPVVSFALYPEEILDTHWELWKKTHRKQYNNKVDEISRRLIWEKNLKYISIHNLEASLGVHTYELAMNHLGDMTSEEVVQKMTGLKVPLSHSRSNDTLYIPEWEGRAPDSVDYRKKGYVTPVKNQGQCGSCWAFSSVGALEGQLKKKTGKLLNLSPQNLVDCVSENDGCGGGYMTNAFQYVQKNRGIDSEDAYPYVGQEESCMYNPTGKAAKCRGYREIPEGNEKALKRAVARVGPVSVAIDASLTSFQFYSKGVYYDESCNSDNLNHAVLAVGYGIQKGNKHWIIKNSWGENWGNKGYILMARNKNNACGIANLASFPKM

Cathepsin S [2] = molecular target: T2, Cathepsin S (Homo sapiens, UniProt P25774); experiment: Inhibition of human cathepsin S by fluorescence assay
T2 sequence (P25774 whole entry): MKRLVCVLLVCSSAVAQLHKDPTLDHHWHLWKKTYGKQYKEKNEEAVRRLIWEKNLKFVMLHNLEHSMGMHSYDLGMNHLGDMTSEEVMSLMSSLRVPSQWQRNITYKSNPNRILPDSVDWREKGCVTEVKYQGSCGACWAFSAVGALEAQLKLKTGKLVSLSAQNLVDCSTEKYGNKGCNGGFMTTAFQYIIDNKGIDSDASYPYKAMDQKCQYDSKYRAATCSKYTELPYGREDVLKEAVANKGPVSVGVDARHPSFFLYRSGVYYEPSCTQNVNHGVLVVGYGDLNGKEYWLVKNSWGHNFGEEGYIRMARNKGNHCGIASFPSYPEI

[3] = molecular target: Procathepsin L (Homo sapiens) (UniProt P07711); experiment: Inhibition of human cathepsin L by fluorescence assay
Chain of Procathepsin L (Homo sapiens) (P07711 114-333 limits assumed): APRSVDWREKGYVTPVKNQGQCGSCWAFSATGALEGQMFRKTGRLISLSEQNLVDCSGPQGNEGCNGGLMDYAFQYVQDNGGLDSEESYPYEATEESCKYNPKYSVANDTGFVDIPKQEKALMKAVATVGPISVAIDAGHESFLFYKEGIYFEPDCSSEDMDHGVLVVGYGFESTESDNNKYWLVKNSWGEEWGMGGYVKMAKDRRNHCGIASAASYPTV

Cathepsin S [4] = molecular target: T2, Cathepsin S; experiment: Inhibition of cathepsin S-mediated proteolytic cleavage of MHC2 associated invariant chain in human JY cells assessed as accumulation of lip10 by Western blot analysis; type: cell-based
[5] = Chemical stability of the compound assessed as half life at 1.15 mM at pH 7.5 by nitrile war-head stability assay in presence of GSH; type: physicochemical
Cathepsin S [6] = molecular target: T3, Cathepsin S (Mus musculus, UniProt O70370); experiment: Inhibition of mouse cathepsin S by fluorescence assay
T3 sequence (O70370 whole entry): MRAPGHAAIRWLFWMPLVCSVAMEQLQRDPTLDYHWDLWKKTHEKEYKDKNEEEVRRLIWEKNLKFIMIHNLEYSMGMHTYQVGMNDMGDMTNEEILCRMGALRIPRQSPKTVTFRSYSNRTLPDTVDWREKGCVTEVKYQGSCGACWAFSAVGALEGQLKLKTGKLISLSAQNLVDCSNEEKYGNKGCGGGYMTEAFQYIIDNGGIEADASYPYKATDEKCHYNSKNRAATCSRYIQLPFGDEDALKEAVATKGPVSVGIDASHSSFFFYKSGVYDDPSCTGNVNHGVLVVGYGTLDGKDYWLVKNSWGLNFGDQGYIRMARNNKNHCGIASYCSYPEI

[7] = Plasma clearance in Wistar rat at 2 mg/kg, iv and 10 mg/kg, po; type: ADME, organism-based
[8] = Oral bioavailability in Wistar rat at 10 mg/kg; type: ADME, organism-based; conditions: in vivo
[9] = Volume of distribution at steady state in Wistar rat at 2 mg/kg, iv and 10 mg/kg, po; type: ADME, organism-based; conditions: in vivo, read-out: Vdss
[10] = Chemical stability of the compound assessed as half life at 1.24 mM at pH 7.5 by nitrile war-head stability assay in presence of GSH; type: physicochemical
[11] = Ratio of drug level in spleen to plasma in C57/BL6 mouse at 0.3 mg/kg, po; type: ADME, organism-based, C57Bl/6; set-up: dose 0.3 mg/kg, route oral
Mus musculus = experiment: Induction of Lip10 accumulation in C57/BL6 mouse spleen at 0.3 mg/kg, po after 4 hrs by Western blot analysis; type: functional, organism-based; set-up: dose 0.3 mg/kg; conditions: C57Bl/6
Cathepsin S [12] = molecular target: T3, Cathepsin S; experiment: Inhibition of cathepsin S-mediated proteolytic cleavage of MHC2 associated invariant chain in mouse splenocytes assessed as accumulation of lip10 by Western blot analysis; type: cell-based
[13] = Chemical stability of the compound assessed as half life at 1.25 mM at pH 7.5 by nitrile war-head stability assay in presence of GSH; type: physicochemical

For `Cn1cnc2c(C#N)nc(-c3ccc(OCC4CCNCC4)c(C(F)(F)F)c3)cc21`, the inhibition [1] was “inactive”, the IC50 (Cathepsin K) was 240 nM and the IC50 (Cathepsin S [2]) was 14.1 nM. For the same molecule, the inhibition [3] was “inactive”.

`N#Cc1nc(-c2cccc(C(F)(F)F)c2)cc2nc[nH]c12` gave an IC50 (Cathepsin K) of 2000 nM and an IC50 (Cathepsin S [2]) of 1050 nM.

With `N#Cc1nc(-c2cccc(C(F)(F)F)c2)cc2[nH]cnc12` the inhibition [1] was “inactive” and the inhibition [3] was “inactive”.

In the case of `CCOc1ccc(-c2cccc(C#N)n2)cc1C(F)(F)F`, the inhibition [1] is reported as “inactive” and the inhibition [3] is reported as “inactive”.

Molecule `Cn1ccc2c(C#N)nc(-c3ccc(OCCN4CCCC4=O)c(C(F)(F)F)c3)cc21` has an IC50 (Cathepsin K) of over 10000 nM and an IC50 (Cathepsin S [2]) of 661 nM.

`CCOc1ccc(-c2cc3c(ncn3CCN(C)C)c(C#N)n2)cc1C(F)(F)F` showed an IC50 (Cathepsin K) of 447 nM, an IC50 (Cathepsin S [2]) of 32 nM and an IC50 (Cathepsin S [4]) of 854 nM.

`CN1CCN(CCCOc2ccc(-c3ccnc(C#N)n3)cc2C(F)(F)F)CC1` showed a half-life at 1150 µM [5] of under 0.25 h.

In the case of `Cn1cnc2c(C#N)nc(-c3ccc(OCc4ccccn4)c(C(F)(F)F)c3)cc21`, the inhibition [1] is reported as “inactive”, the IC50 (Cathepsin S [6]) is reported as 2.5 nM and the IC50 (Cathepsin K) is reported as 2290 nM. For the same molecule, the clearance [7] was 327 mL/min/kg, the bioavailability [8] was 54% and the IC50 (Cathepsin S [2]) was 20 nM. For the same molecule, the IC50 (Cathepsin S [4]) was 853 nM, the inhibition [3] was “inactive” and the Vd [9] was 0.7 L/kg.

For `Cn1cnc2c(C#N)nc(-c3ccc(OC4CCNCC4)c(C(F)(F)F)c3)cc21`, the inhibition [1] was “inactive”, the IC50 (Cathepsin K) was 891 nM and the IC50 (Cathepsin S [2]) was 316 nM. For the same molecule, the inhibition [3] was “inactive”.

In the case of `N#Cc1nc(-c2ccc(OCc3ccccc3)c(C(F)(F)F)c2)cc2[nH]cnc12`, the inhibition [1] is reported as “inactive”, the IC50 (Cathepsin K) is reported as over 10000 nM and the IC50 (Cathepsin S [2]) is reported as 676 nM. The inhibition [3] was “inactive”.

For `Cn1cnc2c(C#N)nc(-c3ccc(OCCN4CCCC4=O)c(C(F)(F)F)c3)cc21`, the inhibition [1] was “inactive”, the IC50 (Cathepsin K) was 2510 nM and the IC50 (Cathepsin S [2]) was 7.8 nM. The IC50 (Cathepsin S [4]) was 1420 nM and the inhibition [3] was “inactive”.

With `CCNc1ccc(-c2cc3[nH]cnc3c(C#N)n2)cc1C(F)(F)F` the inhibition [1] was “inactive”, the IC50 (Cathepsin K) was over 10000 nM and the IC50 (Cathepsin S [2]) was 105 nM. For the same molecule, the inhibition [3] was “inactive”.

In the case of `CCOc1ccc(-c2cc3[nH]cnc3c(C#N)n2)cc1C(F)(F)F`, the inhibition [1] is reported as “inactive”, the IC50 (Cathepsin K) is reported as 8310 nM and the IC50 (Cathepsin S [2]) is reported as 25 nM. For the same molecule, the inhibition [3] was “inactive”.

For `N#Cc1nc(-c2ccc(OCCCO)c(C(F)(F)F)c2)cc2[nH]cnc12`, the inhibition [1] was “inactive”, the IC50 (Cathepsin K) was 2690 nM and the IC50 (Cathepsin S [2]) was 63 nM. The inhibition [3] was “inactive”.

With `CCOc1ccc(-c2cc3c(ncn3C)c(C#N)n2)cc1C(F)(F)F` the inhibition [1] was “inactive”, the IC50 (Cathepsin K) was 1260 nM and the IC50 (Cathepsin S [2]) was 40 nM. For the same molecule, the inhibition [3] was “inactive”.

For `CN1CCN(CCCOc2ccc(-c3cc4c(ncn4C)c(C#N)n3)cc2C(F)(F)F)CC1`, the inhibition [1] was “inactive”, the IC50 (Cathepsin K) was 468 nM and the IC50 (Cathepsin S [4]) was 106 nM. For the same molecule, the inhibition [3] was “inactive”.

Molecule `CCOc1ccc(-c2cc3c(ncn3CCCN3CCOCC3)c(C#N)n2)cc1C(F)(F)F` has an IC50 (Cathepsin K) of 513 nM and an IC50 (Cathepsin S [2]) of 35 nM.

With `CN1CCN(CCCOc2ccc(-c3cccc(C#N)n3)cc2C(F)(F)F)CC1` the half-life at 1240 µM [10] was over 100 h.

`CCOc1ccc(-c2cc3c(ncn3CCN3CCOCC3)c(C#N)n2)cc1C(F)(F)F` showed an IC50 (Cathepsin K) of 1660 nM, an IC50 (Cathepsin S [2]) of 37 nM and an IC50 (Cathepsin S [4]) of 10000 nM.

With `CC(=O)Nc1ccc(-c2cc3[nH]cnc3c(C#N)n2)cc1C(F)(F)F` the inhibition [1] was “inactive”, the IC50 (Cathepsin K) was over 10000 nM and the IC50 (Cathepsin S [2]) was 3240 nM. For the same molecule, the inhibition [3] was “inactive”.

In the case of `Cn1cnc2c(C#N)nc(-c3ccc(OCCCN4CCCC4)c(C(F)(F)F)c3)cc21`, the inhibition [1] is reported as “inactive”, the IC50 (Cathepsin K) is reported as 871 nM and the IC50 (Cathepsin S [2]) is reported as 28 nM. The IC50 (Cathepsin S [4]) was 89 nM and the inhibition [3] was “inactive”.

For `Cn1cnc2c(C#N)nc(-c3ccc(OCCN4CCNC(=O)C4)c(C(F)(F)F)c3)cc21`, the inhibition [1] was “inactive”, the IC50 (Cathepsin K) was 1170 nM and the IC50 (Cathepsin S [2]) was 7.8 nM. The inhibition [3] was “inactive”.

With `CN(C)CCOc1ccc(-c2cc3c(ncn3C)c(C#N)n2)cc1C(F)(F)F` the inhibition [1] was “inactive”, the IC50 (Cathepsin K) was 5890 nM and the IC50 (Cathepsin S [2]) was 209 nM. The inhibition [3] was “inactive”.

In the case of `CCOc1ccc(-c2nc(C#N)c3nc[nH]c3n2)cc1C(F)(F)F`, the inhibition [1] is reported as “inactive” and the inhibition [3] is reported as “inactive”.

For `CN(C)CCCOc1ccc(-c2cc3c(ncn3C)c(C#N)n2)cc1C(F)(F)F`, the inhibition [1] was “inactive”, the IC50 (Cathepsin S [6]) was 2.6 nM and the IC50 (Cathepsin K) was 776 nM. The clearance [7] was 10 mL/min/kg, the bioavailability [8] was 58% and the IC50 (Cathepsin S [2]) was 41 nM. The IC50 (Cathepsin S [4]) was 84 nM, the inhibition [3] was “inactive” and the Vd [9] was 58 L/kg.

`CCCOc1ccc(-c2cc3nc[nH]c3c(C#N)n2)cc1C(F)(F)F` showed an IC50 (Cathepsin K) of 7760 nM and an IC50 (Cathepsin S [2]) of 200 nM.

With `Cn1cnc2c(C#N)nc(-c3ccc(OCc4cccnc4)c(C(F)(F)F)c3)cc21` the inhibition [1] was “inactive”, the IC50 (Cathepsin K) was over 10000 nM and the IC50 (Cathepsin S [2]) was 12.6 nM. The inhibition [3] was “inactive”.

With `CCN1CCN(CCCOc2ccc(-c3cc4c(ncn4C)c(C#N)n3)cc2C(F)(F)F)CC1` the Kp [11] was 50, the inhibition [1] was “inactive” and the IC50 (Cathepsin S [6]) was 2.6 nM. For the same molecule, the Activity (Mus musculus) was “Active”, the IC50 (Cathepsin S [12]) was 6.5 nM and the half-life at 1250 µM [13] was over 100 h. The IC50 (Cathepsin K) was 331 nM, the clearance [7] was 28 mL/min/kg and the bioavailability [8] was 9%. For the same molecule, the IC50 (Cathepsin S [2]) was 7.2 nM, the IC50 (Cathepsin S [4]) was 63 nM and the inhibition [3] was “inactive”. For the same molecule, the Vd [9] was 2 L/kg.

In the case of `Cn1cnc2c(C#N)nc(-c3ccc(OCCC4CCNCC4)c(C(F)(F)F)c3)cc21`, the inhibition [1] is reported as “inactive”, the IC50 (Cathepsin K) is reported as 178 nM and the IC50 (Cathepsin S [2]) is reported as 8.3 nM. The IC50 (Cathepsin S [4]) was 9 nM and the inhibition [3] was “inactive”.

For `Cn1cnc2c(C#N)nc(-c3ccc(OCc4ccncc4)c(C(F)(F)F)c3)cc21`, the inhibition [1] was “inactive”, the IC50 (Cathepsin K) was over 10000 nM and the IC50 (Cathepsin S [2]) was 10 nM. The inhibition [3] was “inactive”.

In the case of `Cn1cnc2c(C#N)nc(-c3ccc(CCCO)c(C(F)(F)F)c3)cc21`, the inhibition [1] is reported as “inactive”, the IC50 (Cathepsin K) is reported as 1070 nM and the IC50 (Cathepsin S [2]) is reported as 24 nM. The inhibition [3] was “inactive”.

For `CCCOc1ccc(-c2cc3[nH]cnc3c(C#N)n2)cc1C(F)(F)F`, the inhibition [1] was “inactive” and the inhibition [3] was “inactive”.

`CCOc1ccc(-c2cc3c(ncn3CCCN(C)C)c(C#N)n2)cc1C(F)(F)F` showed an IC50 (Cathepsin K) of 270 nM, an IC50 (Cathepsin S [2]) of 27 nM and an IC50 (Cathepsin S [4]) of 260 nM.

For `COc1ccc(-c2cc3[nH]cnc3c(C#N)n2)cc1C(F)(F)F`, the inhibition [1] was “inactive”, the IC50 (Cathepsin K) was 8510 nM and the IC50 (Cathepsin S [2]) was 339 nM. For the same molecule, the inhibition [3] was “inactive”.

For `N#Cc1nc(-c2ccc(OCCO)c(C(F)(F)F)c2)cc2[nH]cnc12`, the inhibition [1] was “inactive”, the IC50 (Cathepsin K) was 2820 nM and the IC50 (Cathepsin S [2]) was 145 nM. The inhibition [3] was “inactive”.

For `Cn1cnc2c(C#N)nc(-c3ccc(CCO)c(C(F)(F)F)c3)cc21`, the inhibition [1] was “inactive”, the IC50 (Cathepsin K) was 3160 nM and the IC50 (Cathepsin S [2]) was 71 nM. The inhibition [3] was “inactive”.

In the case of `Cc1cccc(CCOc2ccc(-c3cc4c(ncn4C)c(C#N)n3)cc2C(F)(F)F)n1`, the inhibition [1] is reported as “inactive”, the IC50 (Cathepsin K) is reported as 2040 nM and the IC50 (Cathepsin S [2]) is reported as 11 nM. The IC50 (Cathepsin S [4]) was 267 nM and the inhibition [3] was “inactive”.
